# According to US8653048B2 (Sanlugen Pharmatech Ltd., priority 2009, dated 2014):
# Key:
# [1] = tested on: A549: a human lung cancer cell line; assay: MTT analytical method, A549 cells; assay type: cell-based; settings: 72 h
# Source text: (§1) MTT analytical method was used to test the prodrugs for various tumor cells.
# (§2) • 1) Cell lines: NCI-H460, A549, LOVO, HT-29, MDA-MB-231, SGC7901, HepG2 or BEL-7402 cell lines. Culture: adherent culturing in D-MEM (Hyclone, Inc.) containing 10% fetal calf serum. The initial cell concentration was about 3×10^5 /mL. The cell was passaged by 1:3 dilution in every 2-3 days. On the day before the test, the cell was passaged by 1:2 dilution, the cell concentration for the test was 5-10×10^5 /mL. • 2) Dissolution and dilution of compounds: according to the weight and molecular weight of the drugs provided, 100-200 μL of DMSO was added. Then normal saline was added to make the final diluted concentration of the drugs be 5 mM (Note that the final concentration of DMSO should not be more than 10%). • 3) D-MEM or RPMI 1640 cell culture medium, Gibco, Inc. • 4) Fetal calf serum Hyclone, Inc. • 5) Cell dissociation buffer, 0.25% Trypsin+0.02% EDTA. • 6) MTT solution, MTT Powder (Sigma) were dissolved in PBS buffer solution to make a solution of 5 mg/mL. The solution was filtered by a 0.22 μm micropore membrane and stored at −20° C. • 7) PBS buffer solution. • 8) 10% acidified SDS, 0.01N HCl. • 9) Centrifuge tubes, haustorial tubes etc. (BD, Inc.); 96-well plates (Costatr, Inc.) Procedures: • 1) Cell inoculation: Cells grown for 24 hours after passage, which cells were in good growth state, were used. The cells were harvested by the routine method. The cell concentration was adjust with a fresh culture solution to 2×10^5/mL (for adherent cells)-3×10^5/mL (for suspension cells). The adherent cells were inoculated at 100 μL/well and then cultivated in an incubator with 5% CO2 at 37° C. for 24 h. Thereafter the used culture solution was removed and 95 μL/well of fresh culture solution was added. The suspension cells were inoculated at 95 μL/well directly. • 2) Drugs treatment: 9 concentration grades were designed for every drug, and every concentration had 3 wells. The control group had 5 wells. The control group was tested simultaneously in each test. The final concentrations of a drug added were […], and 5 μL normal saline was added to the control group. • 3) Cell culture and detection: the cells were cultured in an incubator with 5% CO2 at 37° C. for 72 h after the drug was added, then 10 μL MTT was added to each well and the culture was continued for 4 h. 100 μL of 10% SDS (containing 0.01N HCl) was added to each well. After 24 h, the absorbance (A) of each well was determined by Bio-rad 680 ELISA with the detection wavelength of 570 nm and the reference wavelength of 630 nm. Calculation:
# (§3) First, the absorbance (A) of each well was averaged (removing any data with big difference). […] A0 was the mean absorbance of the control wells. The effect curve of the drug concentration was drawn using EXCEL software and the drug concentration for 50% cell survival was calculated according to an appropriate computing methods.
# [2] = tested on: NCI-H460: a human lung cancer cell line; assay: MTT analytical method, NCI-H460 cells; assay type: cell-based; settings: 72 h
# Source text: as §1, §2, §3
# [3] = tested on: HT29: a human colon cancer cell line; assay: MTT analytical method, HT29 cells; assay type: cell-based; settings: HT-29, 72 h
# Source text: as §1, §2, §3
# [4] = tested on: SGC7901: a human gastric cancer line; assay: MTT analytical method, SGC7901 cells; assay type: cell-based; settings: SGC-7901, 72 h
# Source text: as §1, §2, §3
# [5] = tested on: MDA-MB-231: a human breast cancer line; assay: MTT analytical method, MDA-MB-231 cells; assay type: cell-based; settings: MDA-MB-231, MTT, 72 h
# Source text: as §1, §2, §3
# [6] = tested on: HepG2 tumor transplanted in nude mice; assay: HepG2 tumor transplanted in nude mice, intravenous administration; assay type: in vivo, BALB/C nude mice; settings: for weight loss rate: HepG2 nude mice; for effect on growth of HepG2 tumor (growth curve and tumor weight), in words: i.v., SL-01 10, 20, 40 mg/kg, Gem group
# Procedure: 1. […] The drugs were packaged and stored at −20° C.
# The treatment starting day was the first day (d0). […] The tumor tissues were removed and weighed. The inhibition rate of tumor growth was calculated.
# 4.2 The low, middle and high dosage of SL-01 in the treatment for HepG2 liver cancer cell line tumor growth transplanted in nude mice are 10, 20 and 40 mg/kg, respectively.
# [7] = tested on: H460 cells, a human lung cancer cell line, inoculated in nude mice; assay: H460 tumor in nude mice, oral administration of SL-01; assay type: in vivo, Balb/c female nude mice; settings: for Tumor Weight, Average Value: end of the experiment; for drop of animal weight: figure fits day 22 versus negative control (Table 13)
# Procedure: 1. […] Suspension formulation was prepared using 2.5% starch for intragastric administration. […] In the test, it was dissolved in normal saline and filtered with microfiltration membrane and administrated by tail vein injection. Positive control drug: Ftorafur (FT-207) produced by Qilu Pharmaceutical Co. Ltd., oral formulation.
# 2. Experimental animals: 50 Balb/c female nude mice at 4-5 weeks old, purchased from Peking University Health Science Center.
# 1. Culture of tumor cells: H460 cells were cultured in an incubator with 5% CO2 at 37° C. using RPMI-1640 nutrient solution containing 10% fetal calf serum. The cells were passaged through routine method.
# 2.2 Method of inoculating tumor cells in nude mice: cells were collected when they grew to about […] in culture flasks. Cells were washed twice with PBS before they were digested, then 1.5 mL of digestion solution juices was added into every bottle. They were observed under a microscope and the digestion was terminated after the cells were shed. Cell suspension was collected into 50 mL of centrifugal tube and centrifuged and washed twice with PBS. It was counted and suspended with 10 mL of normal saline to get the tumor cell suspension of inoculated nude mice. The tumor cells (1×10^7/0.2 mL) were inoculated in the left front armpits of mice. The tumor growth was observed after the inoculation.
# 4. Evaluation protocols for drug treating effect: these mice were weighed before drug administration and every week thereafter. The long tumor pathline (a) and the short tumor pathline (b) were measured at the same time. The formula for calculating the tumor volume is V=(a×b^2)/2. Mice were euthanized after drug administration for 3 weeks. The tumor was taken out and weighed. […] W was the tumor weight of the treatment group.
# [8] = tested on: NCI-H460 tumor transplanted in nude mice; assay: NCI-H460 tumor transplanted in nude mice, intravenous administration; settings: for weight loss rate: NCI-H460 nude mice; for effect on NCI-H460 tumor (growth curve and tumor weight), in words: i.v. every three days x4, SL-01 5, 10, 20 mg/Kg, GEM 10 mg/Kg
# Procedure: The highest concentrations of both were 10 mg/mL and 240 mg/mL, respectively. […] Assuming that each mouse weighed 20 g and 0.1 mL of drug solution was administered, then the dosage of SL-01 at 5, 10 or 20 mg/kg needed drug concentrations of 1, 2, 4 mg/mL, respectively.
# Cell lines and cultivation: the NCI-H460 lung cancer cell line, the HepG2 liver cancer cell line, or the HT29 colon cancer cell line were cultured by adherent culturing in D-MEM (Gibco, Inc.) containing 10% fetal calf serum. These cells were passaged once by a dilution of 1:3 in every 2-3 days. The cells were collected when they were passaged to grow into 25 of 10 cm culture dishes.
# 3.1 The establishment of a model of transplanted tumors in nude mice: Well-grown NCI-H460 cells, HT29 cells or HepG2 cells were collected (25 of 10 cm culture dishes). The cell concentration was adjusted to 1.5×10^7/mL with serum-free DMEM. 200 μL cell suspension was inoculated into the right back of 6 weeks old male BALB/C nude mice by subcutaneous injection using a 1 mL syringe.
# The treatment starting day was the first day (d0). The corresponding drugs were injected intravenously to the tail vein every three days. The administration volume to each mouse was adjusted according to its body weight. A total of four administrations (d0, d3, d6, d9) were applied. The long and short tumor pathlines were measured with a slide caliper at the beginning of the administration and every 3 days thereafter. The tumor volume V was calculated (V=½ab^2, a is the tumor long pathline, b is the tumor short pathline). The growth curve was drawn with the time as the horizontal axis, and tumor volume as the vertical axis. The experiment was terminated when the tumor size of the control group reached 3000 mm^3. Blood samples were taken from the eyeball and thereafter the nude mice were euthanized by back neck vertebra cervical dislocation. The tumor tissues were removed and weighed. The inhibition rate of tumor growth was calculated.
# [9] = SL-01 middle dosage 60 mg/kg gavage
# [10] = SL-01 middle dosage group 60 mg/kg gavage
# [11] = SL-01 small dosage 30 mg/kg gavage
# [12] = SL-01 small dosage group 30 mg/kg gavage
smiles,measurement,setting,value
"CCCCCCCCCCCCOC(=O)c1nccnc1C(=O)Nc1ccn([C@@H]2O[C@H](CO)[C@@H](O)C2(F)F)c(=O)n1 [Compound 4, Dodecyl-3-((1-((2R,4R,5R)-3,3-difluoro-4-hydroxy-5-(hydroxymethyl)-tetrahydrofuran-2-yl)-2-oxo-1,2-dihydropyrimidin-4-yl)carbamoyl)pyrazine-2-carboxylate]",IC50,[1],< 2000 nM
same,IC50,[2],< 2000 nM
same,IC50,[3],2000 nM
same,IC50,[4],> 16000 nM
same,IC50,[5],> 16000 nM
same,weight loss rate,[6]; SL-01 high dosage 40 mg/kg i.v.,3.5%
same,weight loss rate,[6]; SL-01 low dosage 10 mg/kg i.v.,11.6%
same,weight loss rate,[6]; SL-01 middle dosage 20 mg/kg i.v.,14%
same,"effect on growth of HepG2 tumor (growth curve and tumor weight), in words",[6],neither SL-01 nor gemcitabine has shown an obvious inhibitory effect
same,Mean Volume of Tumor,"[7]; SL-01 middle dosage 60 mg/kg gastric gavage 1 per 3 days, day 7",739.6 mm^3
same,Mean Volume of Tumor,"[7]; SL-01 middle dosage 60 mg/kg gastric gavage 1 per 3 days, day 14",823.4 mm^3
same,Mean Volume of Tumor,"[7]; SL-01 middle dosage 60 mg/kg gastric gavage 1 per 3 days, day 18",870.2 mm^3
same,Mean Volume of Tumor,"[7]; SL-01 middle dosage 60 mg/kg gastric gavage 1 per 3 days, day 22",905.3 mm^3
same,Inhibition ratio (tumor weight),[7]; [9],53.7%
same,Mean Weight of Nude Mice,"[7]; SL-01 middle dosage 60 mg/kg gavage, day 0",19.5 g
same,Mean Weight of Nude Mice,"[7]; SL-01 middle dosage 60 mg/kg gavage, day 7",19.1 g
same,Mean Weight of Nude Mice,"[7]; SL-01 middle dosage 60 mg/kg gavage, day 14",19.6 g
same,Mean Weight of Nude Mice,"[7]; SL-01 middle dosage 60 mg/kg gavage, day 22",19.6 g
same,"Tumor Weight, Average Value",[7]; [9],0.95 g
same,"efficacy by t-test, in words",[7]; [10],significant efficacy
same,drop of animal weight,[7]; [10],14.8%
same,Mean Volume of Tumor,"[7]; SL-01 small (low) dosage 30 mg/kg gastric gavage 1 per 3 days, day 7",761.3 mm^3
same,Mean Volume of Tumor,"[7]; SL-01 small (low) dosage 30 mg/kg gastric gavage 1 per 3 days, day 14",840.9 mm^3
same,Mean Volume of Tumor,"[7]; SL-01 small (low) dosage 30 mg/kg gastric gavage 1 per 3 days, day 18",950.5 mm^3
same,Mean Volume of Tumor,"[7]; SL-01 small (low) dosage 30 mg/kg gastric gavage 1 per 3 days, day 22",1092.0 mm^3
same,Inhibition ratio (tumor weight),[7]; [11],48.3%
same,Mean Weight of Nude Mice,"[7]; SL-01 small dosage 30 mg/kg gavage, day 0",19.6 g
same,Mean Weight of Nude Mice,"[7]; SL-01 small dosage 30 mg/kg gavage, day 7",19.3 g
same,Mean Weight of Nude Mice,"[7]; SL-01 small dosage 30 mg/kg gavage, day 14",19.9 g
same,Mean Weight of Nude Mice,"[7]; SL-01 small dosage 30 mg/kg gavage, day 22",19.7 g
same,"Tumor Weight, Average Value",[7]; [11],1.06 g
same,"efficacy by t-test, in words",[7]; [12],significant efficacy
same,drop of animal weight,[7]; [12],14.3%
same,weight loss rate,[8]; SL-01 high dose group 20 mg/Kg i.v.,7%
same,"effect on NCI-H460 tumor (growth curve and tumor weight), in words",[8],inhibitory effect
"Nc1ccn([C@@H]2O[C@H](CO)[C@@H](O)C2(F)F)c(=O)n1 [Gemcitabine, gemcitabine, reference compound]",IC50,[1],< 2000 nM
same,IC50,[2],< 1000 nM
same,IC50,[3],7000 nM
same,IC50,[4],> 16000 nM
same,IC50,[5],< 1000 nM
same,weight loss rate,[6]; gemcitabine positive control,9%
same,"effect on growth of HepG2 tumor (growth curve and tumor weight), in words",[6],neither SL-01 nor gemcitabine has shown an obvious inhibitory effect
same,Mean Volume of Tumor,"[7]; Gemcitabine 30 mg/kg i.v. 1 per 3 days, day 7",700.7 mm^3
same,Mean Volume of Tumor,"[7]; Gemcitabine 30 mg/kg i.v. 1 per 3 days, day 14",759.7 mm^3
same,Mean Volume of Tumor,"[7]; Gemcitabine 30 mg/kg i.v. 1 per 3 days, day 18",804.5 mm^3
same,Mean Volume of Tumor,"[7]; Gemcitabine 30 mg/kg i.v. 1 per 3 days, day 22",868.0 mm^3
same,Mean Weight of Nude Mice,"[7]; Gemcitabine 30 mg/kg i.v., day 0",19.1 g
same,Mean Weight of Nude Mice,"[7]; Gemcitabine 30 mg/kg i.v., day 7",19.0 g
same,Mean Weight of Nude Mice,"[7]; Gemcitabine 30 mg/kg i.v., day 14",18.6 g
same,Mean Weight of Nude Mice,"[7]; Gemcitabine 30 mg/kg i.v., day 22",18.2 g
same,"Tumor Weight, Average Value",[7]; Gemcitabine 30 mg/kg i.v.,0.89 g
same,"efficacy by t-test, in words",[7]; gemcitabine group 30 mg/kg i.v.,significant efficacy
same,weight loss rate,[8]; gemcitabine positive control 10 mg/Kg i.v.,14%
same,"effect on NCI-H460 tumor (growth curve and tumor weight), in words",[8],inhibitory effect
